These results are taken from patent US20220071941A1, “THERAPIES FOR SQUAMOUS CELL CARCINOMAS” (Kura Oncology, Inc., priority 2018, published 2022).

The test system of this data set is squamous head and neck cancer with HRAS mutations. The experiment in a line: Phase II study of tipifarnib in subjects with HRAS mutant tumors (HNSCC cohort). The class given is in vivo, human. Here is the method: A Phase II study was performed that investigated the antitumor activity, in terms of objective response rate, of tipifarnib in subjects with locally advanced, unresectable or metastatic, relapsed and/or refractory tumors that carry HRAS mutations and for whom there is no curative therapy available. Subjects were men and women over 18 years of age.
Inclusion criteria of the study were as follows: histologically or cytologically confirmed diagnosis of thyroid cancer (cohort 1) or squamous head and neck cancer (cohort 2) for which there is no curative therapy available; tumor that carries a missense HRAS mutation; subject consents to provide at least 10 unstained tumor slides for retrospective testing of HRAS gene tumor status; subject has measurable disease according to RECIST v1.1 and has relapsed or is refractory to prior therapy; at least 2 weeks since the last systemic therapy or radiotherapy regimen prior to enrolment; ECOG PS 0 or 1; acceptable liver function; acceptable renal function; and acceptable hematologic status.
Exclusion criteria of the study were as follows: prior treatment with an FTase inhibitor; history of relevant coronary heart disease or myocardial infarction within last 3 years, NYHA Grade III or greater congestive heart failure, cerebro-vascular attack within the prior year, or serious cardiac arrhythmia requiring medication except atrial fibrillation; known uncontrolled brain, leptomeningeal or epidural metastases (unless treated and well controlled for at least 4 weeks prior to Cycle 1 Day 1); controlled brain metastases that require continuous high dose corticosteroid use within 4 weeks of Day 1; non-tolerable>Grade 2 neuropathy or evidence of unstable neurological symptoms within 4 weeks first dose; major surgery, other than diagnostic surgery, within 4 weeks prior to first dose, without complete recovery; active, uncontrolled bacterial, viral, or fungal infections, requiring systemic therapy; or known infection with HIV, or an active infection with hepatitis B or hepatitis C.
The study comprised 36 participants and subjects were enrolled into two nonrandomized cohorts as follows: Cohort 1 was comprised of patients with malignant thyroid tumors with HRAS mutations; Cohort 2 was comprised of patients with squamous head and neck cancer with HRAS mutations. Patients received tipifarnib at a starting dose of 600-900 mg orally twice daily on days 1-7 and 15-21 of 28-day cycles.
The primary outcome measurement of the study was objective response rate. Additionally, progression-free survival, duration of response, and the number of subjects with adverse events and serious adverse events were also recorded as secondary outcome measures. Adverse events and serious adverse events were graded according to the NCI-CTCAE (Version 4.03).
Upon meeting the primary objective (objective response rate), the study was amended to continue enrollment of HNSCC patients (Cohort 2) in addition to patients with other SCCs (Cohort 3). These patients had tumors carrying high HRASm variant allele frequency (VAF >35% or if baseline serum albumin is >3.5 g/dL)

[1] abbreviates: of the 15 HNSCC patients meeting HRASm VAF criteria.

For `Cn1cncc1[C@@](N)(c1ccc(Cl)cc1)c1ccc2c(c1)c(-c1cccc(Cl)c1)cc(=O)n2C` [tipifarnib], the overall response rate (15 HNSCC patients meeting HRASm VAF criteria, starting dose 600-900 mg orally twice daily on days 1-7 and 15-21 of 28-day cycles) is on record as 53%. Besides, the “median progression-free survival (PFS), patients experiencing SD” value (95% CI 1.6 to 5.4 months) came to 4.5 months. Also, the “median progression-free survival (PFS), patients experiencing a PR” value (95% CI 5.3 to 19.5 months) turned out to be 19 months. Also, under “N=15, 95% CI 4.5 to 19.5 months”, the “overall median progression-free survival (PFS)” value is on record as 5.4 months. For the same molecule, under “graded according to NCI-CTCAE Version 4.03”, the “patients with at least 1 treatment-emergent adverse event (TEAE)” value is listed as “All patients”. For the setting “occurring in ≥10% patients”, the “most frequently observed drug-related Grade >3 TEAEs” value is “blood and lymphatic system disorders, gastrointestinal disorders, and renal disorders”. For the same molecule, under setting [1], the “confirmed partial responses (PR), number of patients” value is given as 8 and the “stable disease (SD), number of patients” value is recorded as 5.
